Test results taken from patent US20260216294A1, “BETA 2-ADRENERGIC RECEPTOR AGONISTS FOR TREATMENT OR PREVENTION OF MUSCLE WASTING” (ATROGI AB, priority 2023, published 2026).

Columns and labels:
L6-myotubes [1] = assay: Measurement of intracellular cAMP levels in differentiated L6-myotubes (Biological Example 3); assay type: cell-based; conditions: 0.25 h
Procedure, shortened: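 Intracellular cAMP quantified by AlphaScreen after ethanol extraction and lysis of L6 myotubes. Cells were serum-starved overnight, then exposed for 15 min to compound (final 1×10^−5 M) or isoprenaline in IBMX-containing (1 mM) HBSS buffer, pH 7.4.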

L6-myotubes [2] = assay: Glucose uptake in differentiated L6-myotubes (Biological Example 2); assay type: cell-based; conditions: read-out: Biological example 2 (GU)
Procedure, shortened: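 Uptake was quantified as radioactivity in 0.2 M NaOH lysates after a 10 min pulse of 50 nM ^3H-2-deoxyglucose. The pulse followed two agonist exposures at 1×10^−5 M final (isoprenaline or test compound): 1 h 40 min, then 20 min in glucose-free medium after washing. L6 myotubes had been starved overnight in medium with 0.5% fatty-acid-free BSA.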

[3] = intracellular cAMP in differentiated L6-myotubes, compound at 10 μM, activity relative to isoproterenol at 10 μM
[4] = glucose uptake in differentiated L6-myotubes, compound at 10 μM, activity relative to isoproterenol at 10 μM
[5] = intracellular cAMP, compound at 10 μM relative to isoproterenol at 10 μM
[6] = glucose uptake, compound at 10 μM relative to isoproterenol at 10 μM

SMILES	Emax at 10 µM (L6-myotubes [1]; [3]) [%]	Emax at 10 µM (L6-myotubes [2]; [4]) [%]	Emax at 10 µM (L6-myotubes [1]; [5]) [%]	Emax at 10 µM (L6-myotubes [2]; [6]) [%]
O[C@@H](CNC[C@H]1CC[C@H](OCc2ccccc2)CC1)c1cncc(F)c1 [Compound 273, (R)-1-(5-fluoro-3-pyridyl)-2-({[(1r,4R)-4-(benzyloxy)cyclohexyl]methyl}amino)-1-ethanol]	< 25	25 to 50		
CO[C@H]1CC[C@H](C[C@@H]2CC[C@H]([C@H](O)c3cccc(F)c3)N2)CC1 [Compound 326, (R)-[(2R,5S)-5-{[(1r,4S)-4-methoxycyclohexyl]methyl}-2-pyrrolidinyl] (m-fluorophenyl)methanol]	< 25	> 75		
CCOC(=O)CO[C@H]1CC[C@@H](C(C)(C)NC[C@H](O)c2cccc(F)c2)CC1 [Compound 407, ethyl[[(1S,4s)-4-{1-[(R)-2-(m-fluorophenyl)-2-hydroxyethylamino]-1-methylethyl}cyclohexyloxy]]acetate]	< 25	50 to 75		
CCC[C@@H]1CCC[C@@H]([C@H](O)c2cccc(Cl)c2)N1 [Compound 115]			< 25	> 75
CC(C)(C[C@H]1CC[C@@H](NS(C)(=O)=O)CC1)NC[C@H](O)c1cccc(F)c1 [Compound 453, (R)-2-{1,1-dimethyl-2-[(1s,4S)-4-(mesylamino)cyclohexyl]ethylamino}-1-(m-fluorophenyl)-1-ethanol]	< 25	> 75		
CC1(NC[C@H](O)c2cccc(F)c2)CC1 [Compound 82, (R)-1-(m-fluorophenyl)-2-(1-methylcyclopropylamino)-1-ethanol]			< 25	> 75
O[C@@H](CNCC[C@H]1CC[C@@H](O)CC1)c1cccc(F)c1 [Compound 297, (R)-1-(m-fluorophenyl)-2-{2-[(1s,4S)-4-hydroxycyclohexyl]ethylamino}-1-ethanol]	< 25	50 to 75		
CC(C)(CC[C@H]1CC[C@H](C(=O)O)CC1)NC[C@H](O)c1cncc(F)c1 [Compound 343, (1R,4r)-4-{3-[(R)-2-(5-fluoro-3-pyridyl)-2-hydroxyethylamino]-3-methylbutyl} cyclohexanecarboxylic acid]	< 25	25 to 50		
CC12CCC([C@H](O)c3cccc(Cl)c3)(CC1)N2 [Compound 197, (R)-(m-chlorophenyl)(4-methyl-7-azabicyclo[[2.2.1]]hept-1-yl)methanol]			< 25	> 75
CC12CCC([C@@H](O)c3ccncc3F)(CC1)N2 [Compound 253, (S)-(3-fluoro-4-pyridyl)(4-methyl-7-azabicyclo[[2.2.1]]hept-1-yl)methanol]	< 25	< 25		
CCC[C@H]1CCC[C@H]([C@@H](O)c2cccc(F)c2)N1 [Compound 70]			< 25	50 to 75
CCCCNCC(O)c1cc(Cl)c(O)c(Cl)c1 (stereo not drawn) [Compound 23, 2-(butylamino)-1-(3,5-dichloro-4-hydroxyphenyl)-1-ethanol]			< 25	< 25
CC(C)(CC[C@H]1CC[C@H](NS(C)(=O)=O)CC1)NC[C@H](O)c1cncc(F)c1 [Compound 362, (R)-2-{1,1-dimethyl-3-[(1r,4R)-4-(mesylamino)cyclohexyl]propylamino}-1-(5-fluoro-3-pyridyl)-1-ethanol]	< 25	50 to 75		
CCCCNCC(O)c1cccc(Cl)c1 (stereo not drawn) [Compound 2, 2-(butylamino)-1-(m-chlorophenyl)-1-ethanol]			< 25	25 to 50
CC(C)(C[C@H]1CC[C@H](C(=O)O)CC1)NC[C@H](O)c1cccc(F)c1 [Compound 355, (1R,4r)-4-{2-[(R)-2-(m-fluorophenyl)-2-hydroxyethylamino]-2-methylpropyl} cyclohexanecarboxylic acid]	< 25	50 to 75		
CC(C)(CC[C@H]1CC[C@@H](O)CC1)NC[C@H](O)c1cccc(F)c1 [Compound 295, (R)-2-{1,1-dimethyl-3-[(1s,4R)-4-hydroxycyclohexyl]propylamino}-1-(m-fluorophenyl)-1-ethanol]	< 25	> 75		
CO[C@H]1CC[C@@H](CCC(C)(C)NC[C@H](O)c2cncc(F)c2)CC1 [Compound 266]	< 25	> 75		
CC12CC(C1)[C@H]([C@H](O)c1ccccc1F)N2 [Compound 210]	> 75	> 75		
CC(=O)N[C@H]1CC[C@@H](CNC[C@H](O)c2cccc(F)c2)CC1 [Compound 307]	< 25	50 to 75		
CS(=O)(=O)N(Cc1ccccc1)c1ccc(CC23CCC([C@@H](O)c4cccc(F)c4)(CC2)N3)cc1 [Compound 472, (S)-[4-({p-[(benzyl)-N-mesylamino]phenyl}methyl)-7-azabicyclo[[2.2.1]]hept-1-yl](m-fluorophenyl)methanol]	< 25	25 to 50		
CC(C)(C)NC[C@H](O)c1ncccc1Cl [Compound 146, (S)-2-(tert-butylamino)-1-(3-chloro-2-pyridyl)-1-ethanol]			< 25	25 to 50
CCCCCCNCC(O)c1ccc(O)cc1 (stereo not drawn) [Compound 17, 2-(hexylamino)-1-(p-hydroxyphenyl)-1-ethanol]			< 25	25 to 50
O[C@@H](CNCCC[C@H]1CC[C@@H](OCc2ccccc2)CC1)c1cncc(F)c1 [Compound 275, (R)-1-(5-fluoro-3-pyridyl)-2-{3-[(1s,4R)-4-(benzyloxy)cyclohexyl]propylamino}-1-ethanol]	< 25	50 to 75		
CCCC1(CCC)CC[C@H]([C@@H](O)c2cccc(F)c2)N1 [Compound 158, (S)-[(R)-5,5-dipropyl-2-pyrrolidinyl](m-fluorophenyl)methanol]			< 25	< 25
CO[C@H]1CC[C@H](CCC(C)(C)NC[C@H](O)c2cncc(F)c2)CC1 [Compound 267, (R)-2-{1,1-dimethyl-3-[(1r,4S)-4-methoxycyclohexyl]propylamino}-1-(5-fluoro-3-pyridyl)-1-ethanol]	< 25	25 to 50		
Cc1ncccc1[C@@H](O)CNC(C)(C)C [Compound 376, (R)-2-(tert-butylamino)-1-(2-methyl-3-pyridyl)-1-ethanol]	25 to 50	> 75		
CCCCNC[C@H](O)c1ccc(F)cc1 [Compound 46, (R)-2-(butylamino)-1-(p-fluorophenyl)-1-ethanol]			< 25	50 to 75
CC12CC(C1)[C@@H]([C@@H](O)c1cccc(Cl)c1)N2 [Compound 207]	< 25	25 to 50		
O[C@@H](c1cccc(F)c1)[C@H]1CCC2(CC2)N1 [Compound 171]			< 25	25 to 50
O[C@@H](CNCCC[C@H]1CC[C@@H](O)CC1)c1cccc(F)c1 [Compound 306, (R)-1-(m-fluorophenyl)-2-{3-[(1s,4R)-4-hydroxycyclohexyl]propylamino}-1-ethanol]	< 25	25 to 50		
